Read-outs that look alike come from different tables or passages of the source.
Experiments:
[1] = tested on: putamen; design: species or system rhesus monkeys; conditions: rhesus monkey, in vivo
Description: Anesthesia was induced with ketamine (10 mg/kg), xylazine (0.5 mg/kg), and thiopental sodium (1 mg/kg). The animals were secured in a monkey stereotactic frame (Kopf Instruments, Tujunga, Calif.). A Hamilton 32-gauge metal blunt tip needle connected to a 250 μl Hamilton syringe (Thompson Instruments, Chantilly, Va.) was stereotactically inserted in the center of the right putamen (anteroposterior 15.5 mm, mediolateral 12 mm and dorsoventral 24.5 mm relative to the tympanic canals and the mid-sagittal sinus)^15. After a delay of 90 minutes, the infusion was begun at 1.0 μl/min.
For CT, 130 μl, 200 μl and 235 μl of the tracer IPA-BSA/^14C-BSA mixture (35-55 Iopanoic Acid/BSA, 61.3-80.4 mg/ml ^14C-BSA) was infused. […]
CT and MRI images were analyzed in the MEDx software package (Sensor Systems, Inc., Sterling, Va.) running on a Sun workstation (Sun Microsystems, Inc., Palo Alto, Calif.). […] These were measured by volume segmentation using two different thresholds. Vd(1) was calculated as the volumes of distribution from CT and MRI containing at least 10% of the total increase in signal intensity due to the addition of contrast agent. A rectangular region of interest (ROI) over the infusion area was defined and in the corresponding site in the contralateral hemisphere, and the perfused maximal signal intensity (peak) and the unperfused maximal signal intensity (background) was measured. […]

[2] = tested on: sympathetic ganglia explants; conditions: cited from earlier work
[3] = in vivo; cited from earlier work
[4] = tested on: cerebral white matter; test: CED of iopamidol in cerebral white matter with real-time CT-imaging; assay type: in vivo, primates (Macaca mulatta)
Description: (§1) Four primates (Macaca mulatta) underwent CED of various volumes (total volume of 90 to 150 μl) of iopamidol (777 Da) in the cerebral white matter combined with CT-imaging during and after infusion (up to 5 days post-infusion), as well as quantitative autoradiography (QAR). Clinical observation (≦20 weeks) and histopathology were used to evaluate safety and toxicity.

[5] = tested on: cerebral white matter; conditions: in vivo
Description: as §1

## IPA-BSA: Iopanoic acid conjugated to BSA, surrogate tracer for CT
[1]
  Mean Vd(1): 3.44±0.74
  Mean Vd(2): 4.51±1.31

## CCC(Cc1c(I)cc(I)c(N)c1I)C(=O)O (centres unmarked) [iopanoic acid]
[2]; 0.01 mM
  Toxicity in tissue culture: No toxicity
[3]
  Neurotoxicity in the clinical setting: not to be neurotoxic
  Side effects when used for imaging the gallbladder: rare side effects (acute renal insufficiency, acute thrombocytompenia)

## C[C@H](O)C(=O)Nc1c(I)c(C(=O)NC(CO)CO)c(I)c(C(=O)NC(CO)CO)c1I [iopamidol]
[4]; CT-imaging
  Distribution of infusate identifiable post-infusion up to: up to 72 hours
  Homogeneity of distribution of infusate: homogeneous
[4]; real-time CT-imaging, total volume 90 to 150 μl
  Overall Vd:Vi ratio, mean±S.D.: 4.1±0.7
[5]
  Clinical or histopathologic evidence of toxicity: None of the animals had clinical or histopathologic evidence of toxicity

## CCC(Cc1c(I)cc(I)c(N)c1I)C(=O)[O-].[Na+] (centres unmarked) [sodium iopanoate]
[2]; 0.1 mM
  Toxicity in tissue culture: vacuolization of fibroblasts
[2]; 1 mM
  Toxicity in tissue culture: immediate death of sympathetic ganglia explants
